# According to US20250186541A1, “DLL3 TARGETING PEPTIDES AND CONSTRUCTS THEREOF” (MARIANA ONCOLOGY INC., priority 2023, published 2025):
# Bridge positions count the residues as written; N and C are the ends. Square brackets hold non-standard residues; d marks the D form. Peptide text beside a SMILES is read from it. * marks the point of attachment. DOTA = O=C(O)CN1CCN(CC(=O)O)CCN(CC(=O)*)CCN(CC(=O)O)CC1; Lys(Me3) = C[N+](C)(C)CCCC[C@H](N)C(=O)O; 1Nal = N[C@@H](Cc1cccc2ccccc12)C(=O)O; NMeQ = CN[C@@H](CCC(N)=O)C(=O)O; Chg = N[C@H](C(=O)O)C1CCCCC1; Tle = CC(C)(C)[C@H](N)C(=O)O; αMeP = C[C@@]1(C(=O)O)CCCN1; Nle = CCCC[C@H](N)C(=O)O; Ahx = NCCCCCC(=O)O
# Target: T1, human DLL3 (Homo sapiens, UniProt Q9NYJ7)
# T1 construct: biotin (biotinylated)
# T1 sequence (Q9NYJ7 27-618): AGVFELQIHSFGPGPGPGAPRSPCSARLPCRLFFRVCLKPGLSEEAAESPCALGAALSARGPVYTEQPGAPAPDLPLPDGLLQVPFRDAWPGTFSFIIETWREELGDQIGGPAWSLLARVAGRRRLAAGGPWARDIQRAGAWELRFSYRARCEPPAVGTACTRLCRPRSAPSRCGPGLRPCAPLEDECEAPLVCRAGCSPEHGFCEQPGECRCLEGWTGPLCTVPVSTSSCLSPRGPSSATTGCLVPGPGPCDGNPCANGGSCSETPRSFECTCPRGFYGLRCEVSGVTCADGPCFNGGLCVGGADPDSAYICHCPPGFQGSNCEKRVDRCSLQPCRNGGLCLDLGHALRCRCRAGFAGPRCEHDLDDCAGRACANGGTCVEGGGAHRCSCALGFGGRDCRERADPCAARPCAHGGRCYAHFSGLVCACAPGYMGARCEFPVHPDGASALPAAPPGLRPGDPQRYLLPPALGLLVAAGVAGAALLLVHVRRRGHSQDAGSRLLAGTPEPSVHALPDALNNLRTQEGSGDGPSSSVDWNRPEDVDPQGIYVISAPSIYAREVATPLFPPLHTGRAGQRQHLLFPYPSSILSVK
# Experiment: Affinity determination by Surface Plasmon Resonance (SPR), Biacore, 1:1 binding model
# Conditions: biotinylated human DLL3 on streptavidin chip, 25° C.; NB = nonbinding
# Outline: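 SPR with biotinylated human DLL3 captured on a streptavidin chip, with a reference surface subtracted. Samples were injected at several concentrations at 100 μL/min in phosphate buffer with 137 mM NaCl, 2.7 mM KCl, 0.05% P20 and 2% DMSO. Kinetic and affinity constants came from a 1:1 binding fit.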
row,Compound,Kd [nM]
1,"CC(=O)N[C@H](C(=O)N[C@@H](CO)C(=O)N[C@@H](CC(=O)O)C(=O)N[C@H]1CSSC[C@@H](C(=O)N2CCC[C@H]2C(=O)N[C@@H](Cc2ccccc2)C(=O)N[C@@H](CC(=O)O)C(=O)N[C@H](CCCCNC(=O)CN2CCN(CC(=O)O)CCN(CC(=O)O)CCN(CC(=O)O)CC2)C(N)=O)NC(=O)[C@H](CC(N)=O)NC(=O)[C@H](Cc2c[nH]c3ccccc23)NC(=O)[C@H](CCC(N)=O)NC(=O)[C@H](CC(C)C)NC(=O)[C@H](Cc2c[nH]c3ccccc23)NC1=O)C(C)(C)C [compound 76, Ac-tBuGly-S-D-C(3)-W-L-Q-W-N-C(3)-P-F-D-D-Lys(DOTA)-CONH2] (Ac-[Tle]SDCWLQWNCPFD[dK](DOTA)-NH2; disulfide 4-10)",12
2,"CC(=O)N[C@@H](CO)C(=O)N[C@@H](CO)C(=O)N[C@@H](CC(=O)O)C(=O)N[C@H]1CSSC[C@@H](C(=O)N2CCC[C@H]2C(=O)N[C@@H](Cc2ccccc2)C(=O)N[C@@H](CC(=O)O)C(=O)N[C@H](CCCCNC(=O)CN2CCN(CC(=O)O)CCN(CC(=O)O)CCN(CC(=O)O)CC2)C(N)=O)NC(=O)[C@H](CC(N)=O)NC(=O)[C@H](Cc2c[nH]c3ccccc23)NC(=O)[C@H](CCC(N)=O)NC(=O)[C@H](CC(C)C)NC(=O)[C@H](Cc2c[nH]c3ccccc23)NC1=O [compound 78, Ac-Ser-S-D-C(3)-W-L-Q-W-N-C(3)-P-F-D-D-Lys(DOTA)-CONH2] (Ac-SSDCWLQWNCPFD[dK](DOTA)-NH2; disulfide 4-10)",16
3,"CC(=O)N[C@@H](CCC(=O)O)C(=O)N[C@@H](CO)C(=O)N[C@@H](CC(=O)O)C(=O)N[C@H]1CSSC[C@@H](C(=O)N2CCC[C@H]2C(=O)N[C@@H](Cc2ccccc2)C(=O)N[C@@H](CC(=O)O)C(=O)N[C@H](CCCCNC(=O)CN2CCN(CC(=O)O)CCN(CC(=O)O)CCN(CC(=O)O)CC2)C(N)=O)NC(=O)[C@H](CC(N)=O)NC(=O)[C@H](Cc2c[nH]c3ccccc23)NC(=O)[C@H](CCC(N)=O)NC(=O)[C@H](CC(C)C)NC(=O)[C@H](Cc2c[nH]c3ccccc23)NC1=O [compound 81, Ac-Glu-S-D-C(3)-W-L-Q-W-N-C(3)-P-F-D-D-Lys(DOTA)-CONH2] (Ac-ESDCWLQWNCPFD[dK](DOTA)-NH2; disulfide 4-10)",12.3
4,"CC(=O)N[C@@H](CCCC[N+](C)(C)C)C(=O)N[C@@H](CO)C(=O)N[C@@H](CC(=O)O)C(=O)N[C@H]1CSSC[C@@H](C(=O)N2CCC[C@H]2C(=O)N[C@@H](Cc2ccccc2)C(=O)N[C@@H](CC(=O)O)C(=O)N[C@H](CCCCNC(=O)CN2CCN(CC(=O)O)CCN(CC(=O)O)CCN(CC(=O)O)CC2)C(N)=O)NC(=O)[C@H](CC(N)=O)NC(=O)[C@H](Cc2c[nH]c3ccccc23)NC(=O)[C@H](CCC(N)=O)NC(=O)[C@H](CC(C)C)NC(=O)[C@H](Cc2c[nH]c3ccccc23)NC1=O [compound 85, Ac-Lys(Me)3-S-D-C(3)-W-L-Q-W-N-C(3)-P-F-D-D-Lys(DOTA)-CONH2] (Ac-[Lys(Me3)]SDCWLQWNCPFD[dK](DOTA)-NH2; disulfide 4-10)",14
5,"CC(=O)N[C@@H](CO)C(=O)N[C@@H](CC(=O)O)C(=O)N[C@H]1CSSC[C@@H](C(=O)N2CCC[C@H]2C(=O)N[C@@H](Cc2ccccc2)C(=O)N[C@@H](CC(=O)O)C(=O)N[C@@H](CCCCNC(=O)CN2CCN(CC(=O)O)CCN(CC(=O)O)CCN(CC(=O)O)CC2)C(N)=O)NC(=O)[C@H](CC(N)=O)NC(=O)[C@H](Cc2c[nH]c3ccccc23)NC(=O)[C@H](CCC(N)=O)NC(=O)[C@H](CC(C)C)NC(=O)[C@H](Cc2c[nH]c3ccccc23)NC1=O [compound 86, Ac-S-D-C(3)-W-L-Q-W-N-C(3)-P-F-D-[L-Lys(DOTA)]-NH2] (Ac-SDCWLQWNCPFDK(DOTA)-NH2; disulfide 3-9)",12.3
6,"CC(C)C[C@@H]1NC(=O)[C@H](Cc2c[nH]c3ccccc23)NC(=O)[C@@H](NC(=O)[C@H](CC(=O)O)NC(=O)[C@H](CO)NC(=O)CCCCCNC(=O)CN2CCN(CC(=O)O)CCN(CC(=O)O)CCN(CC(=O)O)CC2)CSSC[C@@H](C(=O)N2CCC[C@H]2C(=O)N[C@@H](Cc2ccccc2)C(=O)N[C@@H](CC(=O)O)C(N)=O)NC(=O)[C@H](CC(N)=O)NC(=O)[C@H](Cc2c[nH]c3ccccc23)NC(=O)[C@H](CCC(N)=O)N(C)C1=O [compound 93, DOTA-Ahx-S-D-C(3)-W-L-(NMe-Gln)-W-N-C(3)-P-F-D-CONH2] ({DOTA-Ahx}-SDCWL[NMeQ]WNCPFD-NH2; disulfide 3-9)",> 100
7,"CC(=O)N[C@H](C(=O)N[C@@H](CO)C(=O)N[C@@H](CC(=O)O)C(=O)N[C@H]1CSSC[C@@H](C(=O)N2CCC[C@H]2C(=O)N[C@@H](Cc2ccccc2)C(=O)N[C@@H](CC(=O)O)C(N)=O)NC(=O)[C@H](CC(N)=O)NC(=O)[C@H](Cc2c[nH]c3ccccc23)NC(=O)[C@H](CCC(N)=O)NC(=O)[C@H](CC(C)C)NC(=O)[C@H](CCCCNC(=O)CN2CCN(CC(=O)O)CCN(CC(=O)O)CCN(CC(=O)O)CC2)NC1=O)C1CCCCC1 [compound 97, Ac-(Chg)-S-D-C(3)-[L-Lys(DOTA)]-L-Q-W-N-C(3)-P-F-D-CONH2] (Ac-[Chg]SDCK(DOTA)LQWNCPFD-NH2; disulfide 4-10)",> 100
8,"CC(=O)N[C@H](C(=O)N[C@@H](CO)C(=O)N[C@@H](CC(=O)O)C(=O)N[C@H]1CSSC[C@@H](C(=O)N2CCC[C@H]2C(=O)N[C@@H](Cc2ccccc2)C(=O)N[C@@H](CC(=O)O)C(N)=O)NC(=O)[C@H](CC(N)=O)NC(=O)[C@H](CCCCNC(=O)CN2CCN(CC(=O)O)CCN(CC(=O)O)CCN(CC(=O)O)CC2)NC(=O)[C@H](CCC(N)=O)NC(=O)[C@H](CC(C)C)NC(=O)[C@H](Cc2c[nH]c3ccccc23)NC1=O)C1CCCCC1 [compound 99, Ac-(Chg)-S-D-C(3)-W-L-Q-[L-Lys(DOTA)]-N-C(3)-P-F-D-CONH2] (Ac-[Chg]SDCWLQK(DOTA)NCPFD-NH2; disulfide 4-10)",> 100
9,"CC(=O)N[C@H](C(=O)N[C@@H](CO)C(=O)N[C@@H](CC(=O)O)C(=O)N[C@H]1CSSC[C@@H](C(=O)N2CCC[C@H]2C(=O)N[C@@H](Cc2ccccc2)C(=O)N[C@@H](CC(=O)O)C(N)=O)NC(=O)[C@H](CCCCNC(=O)CN2CCN(CC(=O)O)CCN(CC(=O)O)CCN(CC(=O)O)CC2)NC(=O)[C@H](Cc2c[nH]c3ccccc23)NC(=O)[C@H](CCC(N)=O)NC(=O)[C@H](CC(C)C)NC(=O)[C@H](Cc2c[nH]c3ccccc23)NC1=O)C1CCCCC1 [compound 100, Ac-(Chg)-S-D-C(3)-W-L-Q-W-[L-Lys(DOTA)]-C(3)-P-F-D-CONH2] (Ac-[Chg]SDCWLQWK(DOTA)CPFD-NH2; disulfide 4-10)",> 300

# These reach a lower Kd. Values come first.
row,Kd [nM],Compound
1,10,"CC(=O)N[C@@H](Cc1ccccc1)C(=O)N[C@@H](CO)C(=O)N[C@@H](CC(=O)O)C(=O)N[C@H]1CSSC[C@@H](C(=O)N2CCC[C@H]2C(=O)N[C@@H](Cc2ccccc2)C(=O)N[C@@H](CC(=O)O)C(=O)N[C@H](CCCCNC(=O)CN2CCN(CC(=O)O)CCN(CC(=O)O)CCN(CC(=O)O)CC2)C(N)=O)NC(=O)[C@H](CC(N)=O)NC(=O)[C@H](Cc2c[nH]c3ccccc23)NC(=O)[C@H](CCC(N)=O)NC(=O)[C@H](CC(C)C)NC(=O)[C@H](Cc2c[nH]c3ccccc23)NC1=O [compound 80, Ac-Phe-S-D-C(3)-W-L-Q-W-N-C(3)-P-F-D-D-Lys(DOTA)-CONH2] (Ac-FSDCWLQWNCPFD[dK](DOTA)-NH2; disulfide 4-10)"
2,9,"CC(=O)NCCCCCC(=O)N[C@@H](CO)C(=O)N[C@@H](CC(=O)O)C(=O)N[C@H]1CSSC[C@@H](C(=O)N2CCC[C@H]2C(=O)N[C@@H](Cc2ccccc2)C(=O)N[C@@H](CC(=O)O)C(=O)N[C@H](CCCCNC(=O)CN2CCN(CC(=O)O)CCN(CC(=O)O)CCN(CC(=O)O)CC2)C(N)=O)NC(=O)[C@H](CC(N)=O)NC(=O)[C@H](Cc2c[nH]c3ccccc23)NC(=O)[C@H](CCC(N)=O)NC(=O)[C@H](CC(C)C)NC(=O)[C@H](Cc2c[nH]c3ccccc23)NC1=O [compound 74, Ac-Ahx-S-D-C(3)-W-L-Q-W-N-C(3)-P-F-D-D-Lys(DOTA)-CONH2] (Ac-[Ahx]SDCWLQWNCPFD[dK](DOTA)-NH2; disulfide 4-10)"
3,9,"CCCC[C@H](NC(C)=O)C(=O)N[C@@H](CO)C(=O)N[C@@H](CC(=O)O)C(=O)N[C@H]1CSSC[C@@H](C(=O)N2CCC[C@H]2C(=O)N[C@@H](Cc2ccccc2)C(=O)N[C@@H](CC(=O)O)C(=O)N[C@H](CCCCNC(=O)CN2CCN(CC(=O)O)CCN(CC(=O)O)CCN(CC(=O)O)CC2)C(N)=O)NC(=O)[C@H](CC(N)=O)NC(=O)[C@H](Cc2c[nH]c3ccccc23)NC(=O)[C@H](CCC(N)=O)NC(=O)[C@H](CC(C)C)NC(=O)[C@H](Cc2c[nH]c3ccccc23)NC1=O [compound 79, Ac-Nle-S-D-C(3)-W-L-Q-W-N-C(3)-P-F-D-D-Lys(DOTA)-CONH2] (Ac-[Nle]SDCWLQWNCPFD[dK](DOTA)-NH2; disulfide 4-10)"
4,0.29,"CC(=O)N[C@H](C(=O)N[C@@H](CO)C(=O)N[C@@H](CC(=O)O)C(=O)N[C@H]1CSSC[C@@H](C(=O)N2CCC[C@@]2(C)C(=O)N[C@@H](Cc2ccccc2)C(=O)N[C@@H](CC(=O)O)C(=O)N[C@H](CCCCNC(=O)CN2CCN(CC(=O)O)CCN(CC(=O)O)CCN(CC(=O)O)CC2)C(N)=O)NC(=O)[C@H](CC(N)=O)NC(=O)[C@H](Cc2c[nH]c3ccccc23)NC(=O)[C@H](CCC(N)=O)NC(=O)[C@H](CC(C)C)NC(=O)[C@H](Cc2cccc3ccccc23)NC1=O)C1CCCCC1 [compound 95, Ac-(Chg)-S-D-C(3)-(1Nal)-L-Q-W-N-C(3)-(aMe-P)-F-D-D-Lys(DOTA)-CONH2] (Ac-[Chg]SDC[1Nal]LQWNC[αMeP]FD[dK](DOTA)-NH2; disulfide 4-10)"
